From patent US20210308034A1, “PREBIOTIC COMPOSITIONS AND METHODS FOR MAINTAINING A HEALTHY SKIN MICROBIOTA” (KIMBERLY-CLARK WORLDWIDE, INC., priority 2018, published 2021)

Legend:
Assay type in all cases: cell-based
[1] = test system: Corynebacterium minutissimum (ATCC 23348); assay: Carbohydrate Screening Test Method (Biolog phenotype microarray), Bacteria Code A; details: Pathogenic; carbon microarray plate, OD 600 nm, 36 hr, 33° C.; positive = more than 0.05 OD units above zero; blank cell = not utilized
From the text: (§1) After creating desired ratios of various commensal skin bacteria in a healthy skin microbiome, 188 different carbohydrate sources were screened as the next step in determining potential prospects for skin microbiota balancing agents. The screening process was set up to determine which carbohydrate sources promoted commensal and/or pathogenic bacteria as well as to obtain individual and combinations of carbohydrate sources that could serve as microbiota balancing agents that can support or maintain the healthy proportions of commensal skin bacteria of Corynebacterium, Staphylococcus, and Micrococcus. The screening was conducted utilizing Biolog phenotype microarray plates (Hayward, Calif.). Table 1 provides a coded list of the commensal and pathogenic skin bacteria that the carbohydrates were screened against.
(§2) Table 2 provides the results of screening various carbohydrate sources against the commensal and pathogenic bacteria codes listed in Table 1. The Bacteria Codes B, D, E, I, and J are commensal bacteria and are shaded in Table 2 for references purposes. The bacteria codes were each placed in a carbon microarray plate and screened through the Carbohydrate Screening Test Method, as described in the Test Methods section herein. If a particular bacteria code utilized a specific carbohydrate source as described in the Carbohydrate Screening Test Method, then the corresponding cell in Table 2 was marked with a Y (short for “Yes”). […] Many of the carbohydrate sources were utilized by both commensal and pathogenic bacteria, and as such, would not provide an advantage for selective growth of the commensal bacteria. However, some of the carbohydrate sources were only used by commensal bacteria and were identified for further testing as described herein.
(§3) The study employed 10 representative skin bacteria; Staphylococcus epidermidis ATCC 14990, Staphylococcus epidermidis M23864:W2, Staphylococcus aureus ATCC 6538, Staphylococcus aureus ATCC 25904 (Newman), Pseudomonas aeruginosa ATCC 9027, Micrococcus luteus ATCC […], Micrococcus luteus SK58, Klebsiella pneumoniae ATCC BAA-2146, Corynebacterium amycolatum SK46, and Corynebacterium minutissimum ATCC 23348. Cultures were started from freezer bead stocks by placing a single bead into 20 mL of tryptic soy broth (TSB) for all organisms except C. amycolatum SK46 and C. minutissimum ATCC 23348, which were placed into brain heart infusion (BHI) broth. Cultures were grown for about 24 hr at 37° C. except M. luteus ATCC 49732 and M. luteus SK58, which were grown at 30° C. A passage of the culture was made using a sterile swab and streaked onto two M9*2 agar plates to prepare the incubated culture for the phenotype microarray pate according to Table 4. Plates were incubated for about 24 hr at 37° C. except for M. luteus ATCC 49732 and M. luteus SK58, which were incubated at 30° C. for 24 hr.
(§4) All cultures were harvested and washed before inoculation into the carbon microarray plate (BiOLOG, Hayward Calif.), with Biolog Plates PM1 and PM2 each having a source definition of Carbon. The bacteria on the M9*2 agar was suspended via agitation with an inoculating loop in 1 mL of M9*1 media for collection in a 1.7 mL micro centrifuge tube, as noted in Table 4. The bacteria was suspended again in M9*1 media, agitated, and collected into the same 1.7 mL microcentrifuge tube used in the previous step. The tube was centrifuged for 5 minutes at 4,000×G, supernatant decanted, the pellet was resuspended in 1 mL of M9*1 media, and vortex. This washing process was repeated for a total of 4 times.
(§5) A tenfold dilution in M9*1 media was performed using 1 mL of the washed bacterial culture. Of the tenfold dilution 200 μL was placed in an untreated 96-well plate (Falcon, Pasadena Tx.) for an initial optical density (OD) reading at a wavelength of 600 nm. The OD was used to correlate to colony forming units (CFU) per milliliter by using linear regression lines for each organism. […]

[2] = test system: Corynebacterium jeikum (ATCC 33033); assay: Carbohydrate Screening Test Method (Biolog phenotype microarray), Bacteria Code B; details: Commensal; carbon microarray plate, OD 600 nm, 36 hr, 33° C.; positive = more than 0.05 OD units above zero; blank cell = not utilized
Procedure, shortened: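 Strain from M9*2 agar was suspended in M9*1 medium, washed and inoculated into Biolog PM1/PM2 carbon plates. Carbohydrate use was scored yes/no, and growth rate and maximum yield were derived with GrowthRates 2.1, with max yields used for commensal ratios.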

[3] = test system: Micrococcus luteus (SK58); assay: Carbohydrate Screening Test Method (Biolog phenotype microarray), Bacteria Code E; details: Commensal; carbon microarray plate, OD 600 nm, 36 hr, 33° C.; positive = more than 0.05 OD units above zero; blank cell = not utilized
Procedure, shortened: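 Each commensal strain grown in Biolog carbon phenotype microarray plates with single carbohydrate sources. Growth curves fitted with GrowthRates 2.1 to give growth rate and maximum yield. Max yields used to calculate predicted co-culture ratios between Corynebacterium, Staphylococcus and Micrococcus, compared with desired ratios of 1.3, 1.4 and 1.1.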

[4] = test system: Staphylococcus aureus (ATCC 6538); assay: Carbohydrate Screening Test Method (Biolog phenotype microarray), Bacteria Code G; details: Pathogenic; carbon microarray plate, OD 600 nm, 36 hr, 33° C.; positive = more than 0.05 OD units above zero; blank cell = not utilized
From the text: as §1, §2, §3, §4, §5

[5] = test system: Staphylococcus aureus (ATCC 25904) (Newman); assay: Carbohydrate Screening Test Method (Biolog phenotype microarray), Bacteria Code H; details: Pathogenic; carbon microarray plate, OD 600 nm, 36 hr, 33° C.; positive = more than 0.05 OD units above zero; blank cell = not utilized
From the text: as §1, §2, §3, §4, §5

[6] = test system: Staphylococcus epidermidis (M23864:W2); assay: Carbohydrate Screening Test Method (Biolog phenotype microarray), Bacteria Code J; details: Commensal; carbon microarray plate, OD 600 nm, 36 hr, 33° C.; positive = more than 0.05 OD units above zero; blank cell = not utilized
[7] = test system: Klebsiella pneumoniae (ATCC BAA-2146); details: Pathogenic; carbon microarray plate, OD 600 nm, 36 hr, 33° C.; positive = more than 0.05 OD units above zero; blank cell = not utilized
[8] = test system: Pseudomonas aeruginosa (ATCC 9027); details: Pathogenic; carbon microarray plate, OD 600 nm, 36 hr, 33° C.; positive = more than 0.05 OD units above zero; blank cell = not utilized
Procedure, shortened: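 Carbon-source utilisation screen on Biolog PM1/PM2 plates: strain grown in TSB then on M9*2 agar, each ~24 h at 37 °C, washed four times in M9*1 and diluted tenfold. OD600 correlated to CFU/mL; each carbohydrate scored Yes when utilised.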

[9] = test system: Staphylococcus epidermidis (ATCC 14990); assay: Carbohydrate Screening Test Method (Biolog phenotype microarray), Bacteria Code I; details: Commensal; carbon microarray plate, OD 600 nm, 36 hr, 33° C.; positive = more than 0.05 OD units above zero; blank cell = not utilized
From the text: as §1, §2, §3, §4, §5

[10] = test system: Micrococcus luteus (ATCC 49732); assay: Carbohydrate Screening Test Method (Biolog phenotype microarray), Bacteria Code D; details: Commensal; carbon microarray plate, OD 600 nm, 36 hr, 33° C.; positive = more than 0.05 OD units above zero; blank cell = not utilized
From the text: as §1, §2, §3, §4, §5

CC(N)=O [Acetamide]
Y: Carbohydrate Screening Results, Bacteria Code A [1]

O=C(CO)[C@@H](O)[C@H](O)[C@H](O)COP(=O)(O)O [D-Fructose-6-Phosphate]
Y: Carbohydrate Screening Results, Bacteria Code B [2] | Carbohydrate Screening Results, Bacteria Code E [3] | Carbohydrate Screening Results, Bacteria Code G [4] | Carbohydrate Screening Results, Bacteria Code H [5] | Carbohydrate Screening Results, Bacteria Code J [6]

O=C(CO)[C@@H](O)[C@H](O)[C@H](O)CO [D-Fructose]
Y: Carbohydrate Screening Results, Bacteria Code A [1] | Carbohydrate Screening Results, Bacteria Code B [2] | Carbohydrate Screening Results, Bacteria Code C [7] | Carbohydrate Screening Results, Bacteria Code E [3] | Carbohydrate Screening Results, Bacteria Code G [4] | Carbohydrate Screening Results, Bacteria Code H [5] | Carbohydrate Screening Results, Bacteria Code J [6]

O=C[C@H](O)[C@@H](O)[C@H](O)[C@H](O)COP(=O)(O)O [D-Glucose-6-Phosphate]
Y: Carbohydrate Screening Results, Bacteria Code C [7] | Carbohydrate Screening Results, Bacteria Code E [3] | Carbohydrate Screening Results, Bacteria Code F [8] | Carbohydrate Screening Results, Bacteria Code G [4] | Carbohydrate Screening Results, Bacteria Code I [9] | Carbohydrate Screening Results, Bacteria Code J [6]

OC[C@@H](O)[C@@H](O)[C@H](O)[C@H](O)CO [D-Mannitol]
Y: Carbohydrate Screening Results, Bacteria Code B [2] | Carbohydrate Screening Results, Bacteria Code C [7] | Carbohydrate Screening Results, Bacteria Code E [3] | Carbohydrate Screening Results, Bacteria Code F [8] | Carbohydrate Screening Results, Bacteria Code G [4] | Carbohydrate Screening Results, Bacteria Code H [5]

O=C[C@@H](O)[C@@H](O)[C@H](O)[C@H](O)CO [D-Mannose]
Y: Carbohydrate Screening Results, Bacteria Code A [1] | Carbohydrate Screening Results, Bacteria Code B [2] | Carbohydrate Screening Results, Bacteria Code C [7] | Carbohydrate Screening Results, Bacteria Code E [3] | Carbohydrate Screening Results, Bacteria Code G [4] | Carbohydrate Screening Results, Bacteria Code H [5]

O=C(O)[C@@H](O)[C@@H](O)[C@H](O)[C@@H](O)C(=O)O [D-Saccharic Acid]
Y: Carbohydrate Screening Results, Bacteria Code A [1]

OC[C@H]1O[C@H](O[C@H]2O[C@H](CO)[C@@H](O)[C@H](O)[C@H]2O)[C@H](O)[C@@H](O)[C@@H]1O [D-Trehalose]
Y: Carbohydrate Screening Results, Bacteria Code B [2] | Carbohydrate Screening Results, Bacteria Code C [7] | Carbohydrate Screening Results, Bacteria Code D [10] | Carbohydrate Screening Results, Bacteria Code E [3] | Carbohydrate Screening Results, Bacteria Code F [8] | Carbohydrate Screening Results, Bacteria Code G [4] | Carbohydrate Screening Results, Bacteria Code H [5]

OC[C@H]1O[C@@H](n2cnc3c(O)ncnc32)[C@H](O)[C@@H]1O [Inosine]
Y: Carbohydrate Screening Results, Bacteria Code B [2] | Carbohydrate Screening Results, Bacteria Code C [7] | Carbohydrate Screening Results, Bacteria Code E [3] | Carbohydrate Screening Results, Bacteria Code H [5]

C[C@H](O)C(=O)O [L-Lactic Acid]
Y: Carbohydrate Screening Results, Bacteria Code A [1] | Carbohydrate Screening Results, Bacteria Code B [2] | Carbohydrate Screening Results, Bacteria Code E [3] | Carbohydrate Screening Results, Bacteria Code I [9]

CSCC[C@H](N)C(=O)O [L-Methionine]
Y: Carbohydrate Screening Results, Bacteria Code A [1]

OC[C@H]1O[C@H](O[C@H]2[C@H](O)[C@@H](O)[C@H](O)O[C@@H]2CO)[C@H](O)[C@@H](O)[C@@H]1O [Maltose]
Y: Carbohydrate Screening Results, Bacteria Code B [2] | Carbohydrate Screening Results, Bacteria Code C [7] | Carbohydrate Screening Results, Bacteria Code E [3] | Carbohydrate Screening Results, Bacteria Code F [8] | Carbohydrate Screening Results, Bacteria Code H [5] | Carbohydrate Screening Results, Bacteria Code I [9] | Carbohydrate Screening Results, Bacteria Code J [6]

CC(=O)N[C@H]1C(O)O[C@H](CO)[C@@H](O)[C@@H]1O (stereo partly drawn) [N-Acetyl-D-Glucosamine]
Y: Carbohydrate Screening Results, Bacteria Code A [1] | Carbohydrate Screening Results, Bacteria Code B [2] | Carbohydrate Screening Results, Bacteria Code E [3]

O=C(O)CCC(=O)O [Succinic Acid]
Y: Carbohydrate Screening Results, Bacteria Code A [1]

OC[C@H]1O[C@@](CO)(O[C@H]2O[C@H](CO)[C@@H](O)[C@H](O)[C@H]2O)[C@@H](O)[C@@H]1O [Sucrose]
Y: Carbohydrate Screening Results, Bacteria Code A [1] | Carbohydrate Screening Results, Bacteria Code B [2] | Carbohydrate Screening Results, Bacteria Code C [7] | Carbohydrate Screening Results, Bacteria Code E [3] | Carbohydrate Screening Results, Bacteria Code F [8] | Carbohydrate Screening Results, Bacteria Code G [4] | Carbohydrate Screening Results, Bacteria Code J [6]

Cc1cn([C@H]2C[C@H](O)[C@@H](CO)O2)c(=O)[nH]c1=O [Thymidine]
Y: Carbohydrate Screening Results, Bacteria Code A [1] | Carbohydrate Screening Results, Bacteria Code B [2] | Carbohydrate Screening Results, Bacteria Code E [3]

CO[C@@H]1O[C@H](CO)[C@@H](O)[C@H](O)[C@H]1O [β-Methyl-D-Glucoside]
Y: Carbohydrate Screening Results, Bacteria Code B [2] | Carbohydrate Screening Results, Bacteria Code C [7] | Carbohydrate Screening Results, Bacteria Code E [3] | Carbohydrate Screening Results, Bacteria Code H [5]

Maltotriose
Y: Carbohydrate Screening Results, Bacteria Code A [1] | Carbohydrate Screening Results, Bacteria Code B [2] | Carbohydrate Screening Results, Bacteria Code C [7] | Carbohydrate Screening Results, Bacteria Code E [3] | Carbohydrate Screening Results, Bacteria Code F [8] | Carbohydrate Screening Results, Bacteria Code H [5] | Carbohydrate Screening Results, Bacteria Code I [9] | Carbohydrate Screening Results, Bacteria Code J [6]
